Columns and labels:
Test in all cases: relative viability (nuclei count vs DMSO), 5 days (fraction); higher = more cells survive
Erlotinib + OSI-027 = compound: C#Cc1cccc(Nc2ncnc3cc(OCCOC)c(OCCOC)cc23)c1 [Erlotinib] + COc1cccc2cc(-c3nc([C@H]4CC[C@H](C(=O)O)CC4)n4ncnc(N)c34)[nH]c12 [OSI-027] (partner 0.5 µM)
In short: (§1)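 After 5 days of treatment, lung cancer cells in 1536-well plates were fixed and stained in a single step (final 0.05% Triton X-100, 1% formaldehyde, 1 ug/ml Hoechst) and their nuclei counted on 4× images. Treatment had been applied by pin tool the day after seeding as one drug alone or as a fixed anchor-drug dose with five library-drug doses (not always all listed) in √10 steps. Relative viability is the nuclei count of treated wells divided by that of vehicle wells, and values are medians of duplicate plates.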

AT9283 + Pictilisib = compound: O=C(Nc1c[nH]nc1-c1nc2ccc(CN3CCOCC3)cc2[nH]1)NC1CC1 [AT9283] + CS(=O)(=O)N1CCN(Cc2cc3nc(-c4cccc5[nH]ncc45)nc(N4CCOCC4)c3s2)CC1 [Pictilisib] (partner 1 µM)
In short: as §1

Erlotinib + Vorinostat = compound: C#Cc1cccc(Nc2ncnc3cc(OCCOC)c(OCCOC)cc23)c1 [Erlotinib] + O=C(CCCCCCC(=O)Nc1ccccc1)NO [Vorinostat] (partner 1 µM)
In short: as §1

AT9283 + Olaparib = compound: O=C(Nc1c[nH]nc1-c1nc2ccc(CN3CCOCC3)cc2[nH]1)NC1CC1 [AT9283] + O=C(c1cc(Cc2n[nH]c(=O)c3ccccc23)ccc1F)N1CCN(C(=O)C2CC2)CC1 [Olaparib] (partner 8 µM)
In short: as §1

AT9283 + Foretinib = compound: O=C(Nc1c[nH]nc1-c1nc2ccc(CN3CCOCC3)cc2[nH]1)NC1CC1 [AT9283] + COc1cc2c(Oc3ccc(NC(=O)C4(C(=O)Nc5ccc(F)cc5)CC4)cc3F)ccnc2cc1OCCCN1CCOCC1 [Foretinib] (partner 0.25 µM)
In short: as §1

## NCI-H2126
Erlotinib + OSI-027; first compound 0.02 µM
  relative viability: 0.668
Erlotinib + OSI-027; first compound 0.2 µM
  relative viability: 0.592
Erlotinib + OSI-027; first compound 0.6325 µM
  relative viability: 0.532
Erlotinib + OSI-027; first compound 2 µM
  relative viability: 0.366
AT9283 + Pictilisib; first compound 0.003 µM
  relative viability: 0.48
AT9283 + Pictilisib; first compound 0.03 µM
  relative viability: 0.493
AT9283 + Pictilisib; first compound 0.09487 µM
  relative viability: 0.375
AT9283 + Pictilisib; first compound 0.3 µM
  relative viability: 0.26
Erlotinib + Vorinostat; first compound 0.02 µM
  relative viability: 0.688
Erlotinib + Vorinostat; first compound 0.2 µM
  relative viability: 0.529
Erlotinib + Vorinostat; first compound 0.6325 µM
  relative viability: 0.438
Erlotinib + Vorinostat; first compound 2 µM
  relative viability: 0.416
AT9283 + Olaparib; first compound 0.003 µM
  relative viability: 0.978
AT9283 + Olaparib; first compound 0.03 µM
  relative viability: 0.938
AT9283 + Olaparib; first compound 0.09487 µM
  relative viability: 0.698
AT9283 + Olaparib; first compound 0.3 µM
  relative viability: 0.364
AT9283 + Foretinib; first compound 0.003 µM
  relative viability: 1.2
AT9283 + Foretinib; first compound 0.03 µM
  relative viability: 1.18
AT9283 + Foretinib; first compound 0.09487 µM
  relative viability: 0.652
AT9283 + Foretinib; first compound 0.3 µM
  relative viability: 0.447

## NCI-H2170
Erlotinib + OSI-027; first compound 0.02 µM
  relative viability: 0.687
Erlotinib + OSI-027; first compound 0.2 µM
  relative viability: 0.748
Erlotinib + OSI-027; first compound 0.6325 µM
  relative viability: 0.566
Erlotinib + OSI-027; first compound 2 µM
  relative viability: 0.403
AT9283 + Pictilisib; first compound 0.003 µM
  relative viability: 0.309
AT9283 + Pictilisib; first compound 0.03 µM
  relative viability: 0.234
AT9283 + Pictilisib; first compound 0.09487 µM
  relative viability: 0.176
AT9283 + Pictilisib; first compound 0.3 µM
  relative viability: 0.151
Erlotinib + Vorinostat; first compound 0.02 µM
  relative viability: 0.787
Erlotinib + Vorinostat; first compound 0.2 µM
  relative viability: 0.855
Erlotinib + Vorinostat; first compound 0.6325 µM
  relative viability: 0.832
Erlotinib + Vorinostat; first compound 2 µM
  relative viability: 0.501
AT9283 + Olaparib; first compound 0.003 µM
  relative viability: 0.613
AT9283 + Olaparib; first compound 0.03 µM
  relative viability: 0.385
AT9283 + Olaparib; first compound 0.09487 µM
  relative viability: 0.14
AT9283 + Olaparib; first compound 0.3 µM
  relative viability: 0.146
AT9283 + Foretinib; first compound 0.003 µM
  relative viability: 1.06
AT9283 + Foretinib; first compound 0.03 µM
  relative viability: 0.897
AT9283 + Foretinib; first compound 0.09487 µM
  relative viability: 0.261
AT9283 + Foretinib; first compound 0.3 µM
  relative viability: 0.21

## NCI-H2228
Erlotinib + OSI-027; first compound 0.02 µM
  relative viability: 0.643
Erlotinib + OSI-027; first compound 0.2 µM
  relative viability: 0.537
Erlotinib + OSI-027; first compound 0.6325 µM
  relative viability: 0.525
Erlotinib + OSI-027; first compound 2 µM
  relative viability: 0.366
AT9283 + Pictilisib; first compound 0.003 µM
  relative viability: 0.355
AT9283 + Pictilisib; first compound 0.03 µM
  relative viability: 0.259
AT9283 + Pictilisib; first compound 0.09487 µM
  relative viability: 0.141
AT9283 + Pictilisib; first compound 0.3 µM
  relative viability: 0.0664
Erlotinib + Vorinostat; first compound 0.02 µM
  relative viability: 0.649
Erlotinib + Vorinostat; first compound 0.2 µM
  relative viability: 0.591
Erlotinib + Vorinostat; first compound 0.6325 µM
  relative viability: 0.458
Erlotinib + Vorinostat; first compound 2 µM
  relative viability: 0.476
AT9283 + Olaparib; first compound 0.003 µM
  relative viability: 0.675
AT9283 + Olaparib; first compound 0.03 µM
  relative viability: 0.455
AT9283 + Olaparib; first compound 0.09487 µM
  relative viability: 0.228
AT9283 + Olaparib; first compound 0.3 µM
  relative viability: 0.153
AT9283 + Foretinib; first compound 0.003 µM
  relative viability: 0.968
AT9283 + Foretinib; first compound 0.03 µM
  relative viability: 0.613
AT9283 + Foretinib; first compound 0.09487 µM
  relative viability: 0.26
AT9283 + Foretinib; first compound 0.3 µM
  relative viability: 0.104

## NCI-H2347
Erlotinib + OSI-027; first compound 0.02 µM
  relative viability: 0.345
Erlotinib + OSI-027; first compound 0.2 µM
  relative viability: 0.444
Erlotinib + OSI-027; first compound 0.6325 µM
  relative viability: 0.415
Erlotinib + OSI-027; first compound 2 µM
  relative viability: 0.272
AT9283 + Pictilisib; first compound 0.003 µM
  relative viability: 0.726
AT9283 + Pictilisib; first compound 0.03 µM
  relative viability: 1.23
AT9283 + Pictilisib; first compound 0.09487 µM
  relative viability: 0.568
AT9283 + Pictilisib; first compound 0.3 µM
  relative viability: 0.385
Erlotinib + Vorinostat; first compound 0.02 µM
  relative viability: 0.628
Erlotinib + Vorinostat; first compound 0.2 µM
  relative viability: 0.717
Erlotinib + Vorinostat; first compound 0.6325 µM
  relative viability: 0.625
Erlotinib + Vorinostat; first compound 2 µM
  relative viability: 0.552
AT9283 + Olaparib; first compound 0.003 µM
  relative viability: 0.595
AT9283 + Olaparib; first compound 0.03 µM
  relative viability: 0.615
AT9283 + Olaparib; first compound 0.09487 µM
  relative viability: 0.477
AT9283 + Olaparib; first compound 0.3 µM
  relative viability: 0.413
AT9283 + Foretinib; first compound 0.003 µM
  relative viability: 0.844
AT9283 + Foretinib; first compound 0.03 µM
  relative viability: 0.869
AT9283 + Foretinib; first compound 0.09487 µM
  relative viability: 0.672
AT9283 + Foretinib; first compound 0.3 µM
  relative viability: 0.446

## NCI-H2405
Erlotinib + OSI-027; first compound 0.02 µM
  relative viability: 0.701
Erlotinib + OSI-027; first compound 0.6325 µM
  relative viability: 0.614
Erlotinib + OSI-027; first compound 2 µM
  relative viability: 0.591
AT9283 + Pictilisib; first compound 0.003 µM
  relative viability: 0.463
AT9283 + Pictilisib; first compound 0.03 µM
  relative viability: 0.384
AT9283 + Pictilisib; first compound 0.09487 µM
  relative viability: 0.254
AT9283 + Pictilisib; first compound 0.3 µM
  relative viability: 0.145
Erlotinib + Vorinostat; first compound 0.02 µM
  relative viability: 1.27
Erlotinib + Vorinostat; first compound 0.2 µM
  relative viability: 1.1
Erlotinib + Vorinostat; first compound 0.6325 µM
  relative viability: 1.1
Erlotinib + Vorinostat; first compound 2 µM
  relative viability: 0.917
AT9283 + Olaparib; first compound 0.003 µM
  relative viability: 0.941
AT9283 + Olaparib; first compound 0.03 µM
  relative viability: 0.615
AT9283 + Olaparib; first compound 0.09487 µM
  relative viability: 0.333
AT9283 + Olaparib; first compound 0.3 µM
  relative viability: 0.217
AT9283 + Foretinib; first compound 0.003 µM
  relative viability: 1.05
AT9283 + Foretinib; first compound 0.03 µM
  relative viability: 0.82
AT9283 + Foretinib; first compound 0.09487 µM
  relative viability: 0.352
AT9283 + Foretinib; first compound 0.3 µM
  relative viability: 0.312

## NCI-H3122
Erlotinib + OSI-027; first compound 0.02 µM
  relative viability: 0.946
Erlotinib + OSI-027; first compound 0.2 µM
  relative viability: 1.06
Erlotinib + OSI-027; first compound 0.6325 µM
  relative viability: 0.998
Erlotinib + OSI-027; first compound 2 µM
  relative viability: 0.641
AT9283 + Pictilisib; first compound 0.003 µM
  relative viability: 0.602
AT9283 + Pictilisib; first compound 0.03 µM
  relative viability: 0.41
AT9283 + Pictilisib; first compound 0.09487 µM
  relative viability: 0.271
AT9283 + Pictilisib; first compound 0.3 µM
  relative viability: 0.217
Erlotinib + Vorinostat; first compound 0.02 µM
  relative viability: 0.93
Erlotinib + Vorinostat; first compound 0.2 µM
  relative viability: 1.14
Erlotinib + Vorinostat; first compound 0.6325 µM
  relative viability: 1.05
Erlotinib + Vorinostat; first compound 2 µM
  relative viability: 0.953
AT9283 + Olaparib; first compound 0.003 µM
  relative viability: 0.561
AT9283 + Olaparib; first compound 0.03 µM
  relative viability: 0.571
AT9283 + Olaparib; first compound 0.09487 µM
  relative viability: 0.351
AT9283 + Olaparib; first compound 0.3 µM
  relative viability: 0.241
AT9283 + Foretinib; first compound 0.003 µM
  relative viability: 0.803
AT9283 + Foretinib; first compound 0.03 µM
  relative viability: 0.852
AT9283 + Foretinib; first compound 0.09487 µM
  relative viability: 0.284
AT9283 + Foretinib; first compound 0.3 µM
  relative viability: 0.0779
